From patent publication US8354402B2, “Polyarylcarboxamides useful as lipid lowering agents” (Janssen Pharmaceutica N.V., priority 2000, dated 2013)

Tests used:
[1] = test system: ApoB secretion, HepG2 cells; test: Quantification of the secretion of ApoB (HepG2 cells, immunoprecipitation, scintillation counting); assay type: cell-based; settings: 24 hours of incubation; for IC50: Homo sapiens, HepG2, 24 h
Procedure, shortened: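 HepG2 cells in MEM Rega 3 with 10% FCS were treated at 70% confluency with compound (DMSO 0.4% final) for 24 h. Medium ApoB was immunoprecipitated with sheep anti-apoB then rabbit anti-sheep antibody (24 h each, 8° C), and pellet radioactivity was counted by liquid scintillation to give IC50.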

MTP = MTP (Homo sapiens, UniProt P55157); test: MTP assay (triglyceride transfer from donor to acceptor vesicles); assay type: biochemical; settings: MTP activity, 37° C.
Experimental: MTP activity was measured using an assay similar to one described by J. R. Wetterau and D. B. Zilversmit in Chemistry and Physics of Lipids (1985) 38, 205-222. In order to prepare the donor and acceptor vesicles, the appropriate lipids in chloroform were put into a glass test tube and dried under a stream of nitrogen. A buffer containing 15 mM Tris-HCl (pH 7.5), 1 mM ethylenediamine tetra-acetic acid, 40 mM NaCl, 0.02% NaN3 (assay buffer) was added to the dried lipid. The mixture was vortexed briefly and the lipids were then allowed to hydrate for 20 minutes on ice. Vesicles were then prepared by bath sonication (using a Branson 2200 device) at room temperature for at most 15 minutes. Butylated hydroxytoluene was included in all vesicle preparations at a concentration of 0.1%. The lipid transfer assay mixture contained donor vesicles (40 nmole phosphatidylcholine, 7.5 mole % cardiolipin and 0.25 mole % glycerol tri[1-^14C]-oleate), acceptor vesicles (240 nmol phosphatidylcholine) and 5 mg bovine serum albumin in a total volume of 675 μl in a 1.5 ml microcentrifuge tube. Test compounds were added dissolved in dimethylsulfoxide (0.13% final concentration). After 5 minutes of pre-incubation at 37° C., the reaction was started by the addition of MTP in 100 μl of a dialysis buffer. The reaction was stopped by the addition of 400 μl […] (DEAE)-52 cellulose (Sephadex) pre-equilibrated in 15 mM Tris-HCl (pH 7.5), 1 mM ethylenediamine tetra-acetic acid and 0.02% NaN3 (1:1 volume/volume). The mixture was agitated for 4 minutes and centrifuged for 2 minutes at maximum speed in an Eppendorf centrifuge (4° C.) to pellet the DEAE-52-bound donor vesicles. An aliquot of the supernatant containing the acceptor liposomes was counted and the [^14C]-counts were used to calculate the percent triglyceride transfer from donor to acceptor vesicles.
Resulting IC50 values are enumerated in Table C.2 for some of the above-referred compounds.

Chain of MTP (P55157 19-894, species assumed): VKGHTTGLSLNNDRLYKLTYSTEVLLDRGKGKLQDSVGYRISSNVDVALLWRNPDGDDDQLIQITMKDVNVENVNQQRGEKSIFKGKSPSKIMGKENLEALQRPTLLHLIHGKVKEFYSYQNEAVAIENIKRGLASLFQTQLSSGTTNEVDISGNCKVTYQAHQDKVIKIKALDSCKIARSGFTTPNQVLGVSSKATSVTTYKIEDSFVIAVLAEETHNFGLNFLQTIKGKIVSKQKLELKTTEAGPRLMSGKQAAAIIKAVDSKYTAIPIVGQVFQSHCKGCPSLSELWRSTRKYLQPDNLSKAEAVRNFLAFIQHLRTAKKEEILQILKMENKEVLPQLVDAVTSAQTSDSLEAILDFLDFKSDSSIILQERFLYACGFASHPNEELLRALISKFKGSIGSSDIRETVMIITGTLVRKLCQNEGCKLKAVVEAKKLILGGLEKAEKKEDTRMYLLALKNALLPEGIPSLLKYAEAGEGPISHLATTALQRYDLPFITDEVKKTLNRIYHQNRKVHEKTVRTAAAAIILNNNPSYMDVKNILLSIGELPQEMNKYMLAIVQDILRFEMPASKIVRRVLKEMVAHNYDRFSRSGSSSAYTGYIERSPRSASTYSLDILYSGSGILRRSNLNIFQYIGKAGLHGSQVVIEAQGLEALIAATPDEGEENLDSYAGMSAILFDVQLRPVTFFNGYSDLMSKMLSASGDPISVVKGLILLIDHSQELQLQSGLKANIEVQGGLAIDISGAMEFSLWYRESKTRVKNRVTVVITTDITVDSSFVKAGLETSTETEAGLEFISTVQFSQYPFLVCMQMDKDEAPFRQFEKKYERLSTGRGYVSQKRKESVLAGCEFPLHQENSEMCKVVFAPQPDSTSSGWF
Chain of MTP (P07237 18-508 partner, species assumed): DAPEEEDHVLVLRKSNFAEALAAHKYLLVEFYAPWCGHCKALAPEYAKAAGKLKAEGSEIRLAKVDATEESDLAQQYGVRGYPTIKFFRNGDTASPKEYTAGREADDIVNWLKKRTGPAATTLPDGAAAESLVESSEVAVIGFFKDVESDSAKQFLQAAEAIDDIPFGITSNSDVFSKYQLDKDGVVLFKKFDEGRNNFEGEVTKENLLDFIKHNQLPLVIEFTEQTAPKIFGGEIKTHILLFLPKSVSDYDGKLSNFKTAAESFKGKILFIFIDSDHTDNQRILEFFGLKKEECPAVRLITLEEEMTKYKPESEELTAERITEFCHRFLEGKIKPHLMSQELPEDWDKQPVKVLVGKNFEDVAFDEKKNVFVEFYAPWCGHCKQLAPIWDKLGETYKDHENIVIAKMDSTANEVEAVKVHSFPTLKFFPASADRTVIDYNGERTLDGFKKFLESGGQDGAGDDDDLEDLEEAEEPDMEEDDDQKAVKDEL

SMILES	melting point [°C]	IC50 [1] [nM]	IC50 (MTP) [nM]	pIC50 [1]	pIC50 ([1]; listed as 39)	pIC50 ([1]; listed as 242)
CCOC(=O)C(CN1CCN(c2ccc(NC(=O)c3ccccc3-c3ccc(C(F)(F)F)cc3)cc2)CC1)c1ccccc1 (centres unmarked) [Co. No. 81, ethylphenyl-4-[4-[[[4′-(trifluoromethyl)[1,1′-biphenyl]-2-yl]carbonyl]amino]-phenyl]-1-piperazine propanoate]	195	178				
COC(=O)C(c1ccccc1)N1CCC(c2ccc(NC(=O)c3ccccc3-c3ccc(C(F)(F)F)cc3)cc2)CC1 (single isomer, unassigned) [Co. No. 229]	158		52.6	7.409		
COC(=O)C(c1ccccc1)N1CCN(c2ccc(NC(=O)c3ccccc3-c3ccsc3)cc2)CC1 (centres unmarked) [Co. No. 267]	150					
O=C(Nc1ccc(N2CCC(C(C(=O)NCc3ccccc3)c3ccccc3)CC2)cc1)c1cccc2c1-c1ccccc1C2 (centres unmarked) [Co. No. 2]	202	106				
COC(=O)C(c1ccccc1)N1CCN(c2ccc(NC(=O)c3ccccc3-c3ccccc3)cc2)CC1 (stereo not drawn) [Co. No. 52, methyl 4-[4-[([1,1′-biphenyl]-2-ylcarbonyl)amino]phenyl]-α-phenyl-1-piperazineacetate]	125	294				
O=C(Nc1ccc(N2CCN(C(C(=O)NCC(F)(F)F)c3ccccc3)CC2)cc1)c1ccccc1-c1ccc(C(F)(F)F)cc1 (centres unmarked) [Co. No. 1, N-[4-[4-[2-oxo-1-phenyl-2-[(2,2,2-trifluoroethyl)amino]ethyl]-1-piperazinyl]-phenyl]-4′-(trifluoromethyl)-[1,1′-biphenyl]-2-carboxamide]	208	7.89	13.7			
COC(=O)C(c1ccccc1)N1CCC(c2ccc(NC(=O)c3ccccc3-c3ccc(C(F)(F)F)cc3)cc2)CC1 (centres unmarked) [Co. No. 41, methylphenyl-4-[4-[[[4′-(trifluoromethyl)[1,1′-biphenyl]-2-yl]carbonyl]amino]phenyl]-1-piperidineacetate]	138	21.6	8.65			
COC(=O)C(c1ccccc1)C1CCN(c2ccc(NC(=O)c3ccccc3-c3ccc(C(F)(F)F)cc3)cc2)CC1 (stereo not drawn) [Co. No. 39, methyl α-phenyl-1-[4-[[[4′-(trifluoromethyl)-[1,1′-biphenyl]-2-yl]carbonyl]amino]phenyl]-4-piperidineacetate]	151		12		7.791	
CCCOC(=O)C(c1ccccc1)N1CCN(c2ccc(NC(=O)c3ccccc3-c3ccc(C(F)(F)F)cc3)cc2)CC1 (centres unmarked) [Co. No. 62, propyl-phenyl-4-[4-[[[4′-(trifluoromethyl)[1,1′-biphenyl]-2-yl]carbonyl]amino]phenyl]-1-piperazineacetate]	151	64.6	10.5			
CCNC(=O)C(c1ccccc1)N1CCN(c2ccc(NC(=O)c3ccccc3-c3ccc(C(F)(F)F)cc3)cc2)CC1 (centres unmarked) [Co. No. 54, N-[4-[4-[2-(ethylamino)-2-oxo-1-phenylethyl]-1-piperazinyl]phenyl]-4′-(trifluoromethyl)-[1,1′-biphenyl]-2-carboxamide]	123	7.89	5.38			
COC(=O)C(c1ccccc1)C1CCN(c2ccc(NC(=O)c3ccccc3-c3ccc(C(F)(F)F)cc3)cc2)CC1 (centres unmarked) [Co. No. 242]			11.5			8.133
COC(=O)C(c1ccccc1)N1CCN(c2ccc(NC(=O)c3ccccc3-c3cccnc3)cc2)CC1 (centres unmarked) [Co. No. 270]	194					
COC(=O)C(c1ccccc1)N1CCC(c2ccc(NC(=O)c3ccccc3-c3ccc(C(F)(F)F)cc3)cc2)CC1 (single isomer, unassigned) [Co. No. 230]			3.64	8.31		
O=C(Nc1ccc(N2CCN(C(C(=O)NCc3ccccn3)c3ccccc3)CC2)cc1)c1ccccc1-c1ccc(C(F)(F)F)cc1 (centres unmarked) [Co. No. 60]		≤ 30	8.28			
